According to patent US20240277767A1, “METHODS AND USES” (PROLEUKOCYTE AB, priority 2021, published 2024):

Experiments:
Format in all cases: cell-based, human
[1] = tested on: CD8+ T cells; experiment: IFNγ release by expanded healthy donor CD8+ T cells by pre-treatment time
[2] = tested on: NK cells; experiment: Degranulation (CD107a) and IFNγ expression of NK cells co-cultured with K562 cells (flow cytometry); conditions: for Degranulation capacity (CD107a expression) of NK cells after co-culture with K562: with and without induction of oxidative stress (H2O2)
Procedure: (§1) Lymphocytes were isolated and pre-treated when indicated, with compound and H2O2, as described above. For degranulation/measuring CD107a expression, NK cells were co-cultured with K562 tumour cells at an effector target ratio 1:1 in the presence of anti-CD107a in U-bottom plates. After 2 h, GolgiStop™ and GolgiPlug™ (BD Bioscience) were added and cells were harvested after an additional 4 h co-culture and stained for CD56 and CD3, as described above. For positive control, 25 ng/ml PMA (Sigma Aldrich) and 500 ng/mL Ionomycin (Sigma Aldrich) were added.
Lymphocytes were isolated and pre-treated when indicated, with compounds and/or H2O2, as described above. For degranulation assay, NK cells were co-cultured with K562 cells (E:T ratio 1:1) in the presence of anti-CD107a FITC antibody. After 2 h, GolgiStop™ and GolgiPlug™ (BD Bioscience) were added and cells were harvested after an additional 4 h co-culture and stained for CD56, CD3 and anti-IFNγ, as described above. As a positive control, 25 ng/ml PMA (Sigma Aldrich) and 500 ng/ml Ionomycin (Sigma Aldrich) were added.

[3] = tested on: ANRU TIL; experiment: TIL infiltration into ANRU spheroids (flow cytometry, confocal microscopy); conditions: 48 h co-culture
Excerpt: To study TIL infiltration into spheroids, eight spheroids of each condition were pooled and carefully washed twice with PBS, dissociated with trypsin and then stained with anti-CD3, CD4 and anti-CD8. The supernatant was collected to measure the non-infiltrated fraction.
For confocal microscopy, spheroids were fixed with 4% PFA (Thermo Scientific). Spheroids stained with anti-CD8a followed by the secondary antibody (goat-anti-mouse IgG-AF647, Biolegend) and Hoechst 33342 dye (Invitrogen). Spheroids were cleared with 88% glycerol (Sigma) overnight, transferred to 8-well u-slides (Ibidi) and imaged with the Zeiss LSM800 confocal microscope. Spheroids were also analyzed for T cell infiltration using flow cytometry, see above.

[4] = tested on: NK cells; experiment: Viability of pre-treated NK cells after H2O2 treatment (flow cytometry); conditions: alive NK cells 4 h after H2O2 treatment, vs untreated NK cells
Procedure: Lymphocytes were pre-treated for 18 h with Auranofin (AUF, with the concentration 1 μg/mL for NK cells and 0.5 μg/mL for TIL, if not indicated differently), DL-Sulforaphane (SUL) or Dimethyl Fumarate (DMF) (all Sigma-Aldrich) at indicated concentrations.
(§2) For Nrf2 inhibition, NK cells were treated with 50 μM ML-385 (Sigma-Aldrich) in parallel. For H2O2 treatment, lymphocyte cells were washed and resuspended to 1×10^6 cells/mL in medium and exposed to indicated H2O2 (Sigma-Aldrich) concentration for 1 h at 37° C. Cells were washed with medium and then used for further experiments. For monocyte experiments, autologous NK cell-monocytes or TIL-monocytes were used. NK cells/TIL were isolated and pre-treated with 0.5 μg/mL AUF, as described above, and co-cultured with unstimulated at the ratio, 1:2 M:NK, or stimulated monocytes at the ratio, 1:1 M:NK, if not indicated otherwise. Stimulated monocytes were activated with 100 ng/ml PMA for 1 min, washed and added at indicated ratio, the number of NK cell/TIL was kept constant. As control, H2O2 was used at indicated concentration. […]
All antibodies (see Table 1) and FACS reagents were used according to manufactures recommendation, if not stated otherwise. […] Samples were fixed with 2% PFA (Thermo scientific) for 15 min before acquired on a NovoCyte (ACEA Biosciences) and analysed using FlowJo Software (TreeStar).

[5] = tested on: NK cells; experiment: ADCC: NK cells with RAJI cells coated with Rituximab or Ofatumumab
Procedure: as §1
For cytotoxic assay, a standard 4 h [Cr^51]-release assay was used. Briefly, tumour cells were harvested and labeled with 51Cr (PerkinElmer) and used as target cells. Effector cells, NK cells and T cells, were co-cultured in 96-well V-bottom plate with indicated tumour cells at the stated effector target ratio (E:T). The supernatant was collected onto LUMA plates (Perkin-Elmer) and radioactivity/tumour cell lysis was detected by MicroBeta2 (Perkin Elmer). Target cell killing measured by % specific lysis and calculated using the formula: ((experimental release-spontaneous release)/(maximum release-spontaneous release))*100.
For analyzing ADCC, NK cells were cultured with RAJI cells and Rituximab (0.5 μg/mL, MabThera, Roche) or Ofatumumab (0.05 μg/mL, Arzerra, Novartis).

[6] = tested on: NK cells; experiment: Intracellular ROS levels in NK cells (CellROX, flow cytometry)
Procedure: (§3) For Nrf2 inhibition, NK cells were treated with 50 μM ML-385 (Sigma-Aldrich) in parallel. For H2O2 treatment, lymphocyte cells were washed and resuspended to 1×10^6 cells/mL in medium and exposed to indicated H2O2 (Sigma-Aldrich) concentration for 1 h at 37° C. Cells were washed with medium and then used for further experiments. For monocyte experiments, autologous NK cell-monocytes or TIL-monocytes were used. NK cells/TIL were isolated and pre-treated with 0.5 μg/mL AUF, as described above, and co-cultured with unstimulated at the ratio, 1:2 M:NK, or stimulated monocytes at the ratio, 1:1 M:NK, if not indicated otherwise. Stimulated monocytes were activated with 100 ng/ml PMA for 1 min, washed and added at indicated ratio, the number of NK cell/TIL was kept constant. As control, H2O2 was used at indicated concentration. Cells were co-cultured for 2 h and then effector cells were stained for intracellular ROS (see flow cytometry) or used as effector cells in Cr^51 release assay (E:T ratio 10:1).
For detection of intracellular ROS levels, for NK cells CellROX™ Deep Red Reagent (Invitrogen) were used. Briefly, NK cells were stained with 2.5 μM CellROX solution in RPMI for 30 min at 37° C. and then stained for flow cytometry with anti-CD56 and anti-CD3 (both Biolegend).

[7] = tested on: ANRU TIL; experiment: ANRU TIL exposed to activated autologous monocytes: spheroid caspase activation and IFNγ release; conditions: for Caspase activity in spheroids co-cultured with TIL exposed to activated autologous monocytes: highest dose of AUF, vs untreated control TIL
Procedure: as §3
For cytokine release assay, NK cells and TIL were cultured with indicated tumour cells at the effector target ratio 4:1 (E:T) for 24 h in U-bottom plates. IFNγ secretion was measured using human IFN-γ ELISA development kit (Mabtech) following the manufacturer's instructions.
(§4) 5000 ANRU tumour cells were seeded per well in Ultra-Low Attachment 96-well plates (Corning Costar) in culture medium containing 2% Matrigel (Corning) for 3 days. 1×10^4AUF pre-treated TIL (see above), and spheroids were co-cultured and monitored for 48 h with the IncuCyte live cell imaging system (Essen Bioscience) in the presence of CellEvent™ Caspase 3/7 Green detection agent (Invitrogen).

[8] = tested on: CD19 directed CAR T cells; experiment: CD19-directed CAR T-cell lysis of RAJI and N6/ADR tumour cells after H2O2; conditions: H2O2 at different concentrations, E:T 15:1, vs control CAR T cells
Procedure: Melanoma patient derived TIL and CD19 directed CAR T cells were generated as previously described (Magalhaes et al., 2018; Lövgren et al., 2020).
as §2
For cytotoxic assay, a standard 4 h [Cr^51]-release assay was used. […] The supernatant was collected onto LUMA plates (Perkin-Elmer) and radioactivity/tumour cell lysis was detected by MicroBeta2 (Perkin Elmer). Target cell killing measured by % specific lysis and calculated using the formula: ((experimental release-spontaneous release)/(maximum release-spontaneous release))*100.

[9] = tested on: ANRU TIL; experiment: 3D killing assay: ANRU TIL on autologous tumour spheroids (Caspase 3/7, live cell imaging); conditions: 48 h co-culture, vs controls
Procedure: as §4

[10] = upon addition of H2O2, vs control NK cells

Compound: CC(=O)OC[C@H]1O[C@@H]([S-])[C@H](OC(C)=O)[C@@H](OC(C)=O)[C@@H]1OC(C)=O.CCP(CC)CC.[Au+] [AUF, Auranofin]
- Pre-treatment time after which a protective effect was observed in T cells [1]: 8 to 12 h
- Difference in protective effect on different NK cell functions (CD107a degranulation vs IFNγ expression) ([2]; during oxidative stress, 6 h co-culture with K562): no difference
- Degranulation capacity (CD107a expression) of NK cells after co-culture with K562 [2]: protective effect was observed both in the presence or absence of H2O2
- Degranulation capacity (CD107a expression) of NK cells after co-culture with K562 ([2]; listed as Auranofin): increased degranulation capacity
- Capacity of TIL to infiltrate the spheroid [3]: no difference
- Viability of NK cells following exposure to H2O2 [4]: improved viability
- Ability of NK cells to degranulate in response to anti-CD20 coated RAJI cells [5, 10]: significant increase
- Ability of NK cells to lyse anti-CD20 coated RAJI cells [5, 10]: significant increase
- Capacity of NK cells to recognize anti-CD20 coated RAJI cells ([5]; without the presence of ROS): increased capacity to recognize the anti-CD20 coated RAJI cells
- Intracellular fluorescence of the ROS indicator in NK cells vs controls ([6]; 72 h after AUF removal): no differences
- Intracellular fluorescence of the ROS indicator in NK cells ([6]; H2O2 challenge 0-48 h after AUF removal): significantly lower intracellular fluorescence of the ROS indicator
- Intracellular ROS levels in NK cells and TIL after H2O2 treatment ([6]; up to 72 h after compound removal): decreased intracellular ROS levels
- Intracellular ROS levels in NK cells ([6]; without addition of H2O2): significantly reduced intracellular ROS levels
- Cytokine release (IFNγ) by TIL impaired by monocyte derived ROS ([7]; 2D grown ANRU tumour cells): partially be rescued
- Caspase activity in spheroids co-cultured with TIL exposed to activated autologous monocytes [7]: increased caspase activity
- Caspase activity in spheroids co-cultured with TIL exposed to activated autologous monocytes ([7]; listed as auranofin): increased elimination of spheroid grown tumour cells
- Killing of CD19+ target cells by CD19 directed CAR T cells [8]: significantly increased killing
- Killing of CD19+ target cells by CD19 directed CAR T cells ([8]; listed as auranofin): improved tumour killing
- Capacity of ANRU TIL to induce apoptosis in spheroid tumour cells (Caspase 3/7) [9]: significantly increased capacity to induce apoptosis
